The target of assay [1] is T1, Recombinant Human 17β-HSD1 (Homo sapiens, UniProt P14061).
T1 construct: made in house; host or cells: Sd9 (Sf9) insect cells, baculovirus (Bac to Bac Expression System)
T1 sequence (P14061 1-328): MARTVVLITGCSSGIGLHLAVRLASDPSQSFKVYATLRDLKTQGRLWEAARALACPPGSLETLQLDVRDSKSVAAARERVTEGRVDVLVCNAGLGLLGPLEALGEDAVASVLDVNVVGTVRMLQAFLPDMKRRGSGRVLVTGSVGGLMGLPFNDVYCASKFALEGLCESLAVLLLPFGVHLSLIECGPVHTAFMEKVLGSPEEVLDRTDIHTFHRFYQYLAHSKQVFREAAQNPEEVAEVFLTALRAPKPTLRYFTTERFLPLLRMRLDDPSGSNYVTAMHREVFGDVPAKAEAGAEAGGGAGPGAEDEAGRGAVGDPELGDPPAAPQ
The assay can be described thus: Inhibition of recombinant human 17β-HSD1 (conversion of 3H-estrone to estradiol, HPLC). It counts as biochemical. Particulars: inhibitor at 1 μM, 30 nM estrone, 1 mM NADPH, 30 min at RT; for inhibition at 1 µM: read-out: 17β-HDS1 Inhibition % at 1 μM. The protocol: 17β-HSD1 Production and Isolation:
Recombinant baculovirus was generated by the “Bac to Bac Expression System” (Invitrogen). Recombinant bacmid was transfected to Sd9 insect cells using “Cellfectin Reagent” (Invitrogen). 60 h later cells were harvested; the microsomal fraction was isolated as described by Puranen, T. J., Poutanen, M. H., Peltoketo, H. E., Vihko, P. T. and Vihko, R. K. (1994) Site-directed mutagenesis of the putative active site of human 17 β-hydroxysteroid dehydrogenase type 1. Biochem. J. 304: 289-293. Aliquots were stored frozen until determination of enzymatic activity.
Assay—Inhibition of Recombinant Human 17β-HSD1:
Recombinant protein (1 μg/ml) was incubated in 20 mM KH2PO4 pH 7.4 with 30 nM estrone (including 800.000 cpm/ml of ^3H-estrone) and 1 mM NADPH for 30 min at RT, in the presence of the potential inhibitor at concentrations 1 μM or 0.1 μM. Inhibitor stock solutions were prepared in DMSO. Final concentration of DMSO was adjusted to 1% in all samples. The enzyme reaction was stopped by addition of 10% trichloroacetic acid (final concentration). Samples were centrifuged in a microtiter plate at 4000 rpm for 10 min. Supernatants were applied to reverse phase HPLC on a Waters Symmetry C18 column, equipped with a Waters Sentry Guard column. Isocratic HPLC runs were performed at RT at a flow rate of 1 ml/min in acetonitrile:water 48:52 as running solvent. Radioactivity was monitored in the eluate by a Packard Flow Scintillation Analyzer. Total radioactivity for estrone and estradiol were determined in each sample and percent conversion of estrone to estradiol was calculated according to the following formula:
(§1) Percent inhibition was calculated flowingly: % inhibition=100−% conversion

The target in assay [2] is T2, Recombinant Human 17β-HSD2 (Homo sapiens, UniProt P37059).
T2 construct: made in house; host or cells: Sd9 (Sf9) insect cells, baculovirus (Bac to Bac Expression System)
T2 sequence (P37059 1-387): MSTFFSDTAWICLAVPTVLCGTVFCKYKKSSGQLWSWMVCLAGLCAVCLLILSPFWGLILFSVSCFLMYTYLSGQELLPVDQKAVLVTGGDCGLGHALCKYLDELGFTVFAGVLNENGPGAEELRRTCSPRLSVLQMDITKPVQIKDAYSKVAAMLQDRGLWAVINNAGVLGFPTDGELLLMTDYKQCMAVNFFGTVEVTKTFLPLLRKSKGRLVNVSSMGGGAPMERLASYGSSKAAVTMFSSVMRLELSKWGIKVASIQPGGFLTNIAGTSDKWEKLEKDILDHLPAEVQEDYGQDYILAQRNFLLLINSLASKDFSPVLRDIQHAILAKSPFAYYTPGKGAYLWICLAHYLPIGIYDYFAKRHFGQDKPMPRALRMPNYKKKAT
As to the kind of experiment: Inhibition of recombinant human 17β-HSD2 (conversion of 3H-estradiol to estrone, HPLC). Particulars: inhibitor at 1 μM, 50 nM estradiol, 1 mM NADH, 30 min at RT; for inhibition at 1 µM: read-out: 17β-HSD2 Inhibition % at 1 μM. It counts as biochemical. The protocol:
17β-HSD2 Production and Isolation:
Similarly to 17β-HSD1 the Recombinant baculovirus was generated by the “Bac to Bac Expression System” (Invitrogen). Recombinant bacmid was transfected to Sd9 insect cells using “Cellfectin Reagent” (Invitrogen). 60 h later cells were harvested and supernatant were fractionated by the following protocol: • cells were dissolved into 40 ml of A-buffer (40 mM TRIS, pH8.0, 20% glycerol, 20 μM NAD, 0.4 mM PMSF, 150 mM NaCl, 0.5% dodecyl-β-maltoside+protease inhibitor cocktail) • cells were sonicated • lysate was incubated on ice for 15 min • lysate was centrifuged 5000 rpm 15 min, +4° C. • centrifugation of the supernatant 180.000 g 30 min, +4° C. • pellet was dissolved into 8 ml of A-buffer • not resuspended material was removed by centrifugation 5000 rpm 15 min, +4° C. • the clear supernatant was divided into 100 μl aliquots and were stored frozen until determination of enzymatic activity.
The amount of 17β-HSD2 was analysed by immunoblotting and total protein concentration of each extract batch was determined.
Assay—Inhibition of Recombinant Human 17β-HSD2:
Recombinant protein (4 μg/ml) was incubated in 20 mM KH2PO4 pH 8.5 with 50 nM estradiol (including 800.000 cpm/ml of ^3H-estradiol) and 1 mM NADH for 30 min at RT, in the presence of the potential inhibitor at concentrations 1 μM or 0.1 μM. Inhibitor stock solutions were prepared in DMSO. Final concentration of DMSO was adjusted to 1% in all samples. The enzyme reaction was stopped by addition of 10% trichloroacetic acid (final concentration). Samples were centrifuged in a microtiter plate at 4000 rpm for 10 min. Supernatants were applied to reverse phase HPLC on a Waters Symmetry C18 column, equipped with a Waters Sentry Guard column. Isocratic HPLC runs were performed at RT at a flow rate of 1 ml/min in acetonitrile:water 48:52 as running solvent. Radioactivity was monitored in the eluate by a Packard Flow Scintillation Analyzer. Total radioactivity for estrone and estradiol were determined in each sample and percent conversion of estradiol to estrone was calculated according to the following formula:
as §1

Structures are written as SMILES. Structures can show the parent of a compound that is named as a salt.

The term inhibition denotes the change of the read-out against control, counted positive when it falls. Consider `COc1ccc2c(c1)CCC1C2CC[C@@]2(C)C1[C@H](CCC(=O)Nc1ncc(C)s1)C[C@@]2(O)C#N` (stereo partly drawn) [Compound 23, 3-((13S,15R,17S)-17-cyano-17-hydroxy-3-methoxy-13-methyl-7,8,9,11,12,13,14,15,16,17-decahydro-6H-cyclopenta[a]phenanthren-15-yl)-N-(5-methylthiazol-2-yl)propanamide], for which the inhibition at 1 µM in assay [1] is 82%; in assay [2], 3%.

On to `Cc1cnc(NC(=O)CC[C@@H]2C[C@@](O)(C#N)[C@@]3(C)CCC4c5ccc(O)cc5CCC4C23)s1` (stereo partly drawn) [Compound 21, 3-((13S,15R,17S)-17-cyano-3,17-dihydroxy-13-methyl-7,8,9,11,12,13,14,15,16,17-decahydro-6H-cyclopenta[a]phenanthren-15-yl)-N-(5-methylthiazol-2-yl)propanamide], for which the values for the inhibition at 1 µM in assay [1] and in assay [2] were 76% and 6%, respectively.

For `Cc1cnc(NC(=O)CC[C@@H]2C[C@H](O)[C@@]3(C)CCC4c5ccc(O)cc5CCC4C23)s1` (stereo partly drawn) [Compound 1, 3-((13S,15R,17S)-3,17-Dihydroxy-13-methyl-7,8,9,11,12,13,14,15,16,17decahydro-6H-cyclopenta[a]phenanthren-15-yl)-N-(5-methylthiazol-2-yl)propanamide], the inhibition at 1 µM in assay [1] is 98%; in assay [2], 48%.

Turning to `Cc1cnc(NC(=O)CC[C@@H]2CC(NCCCN(C)C)[C@@]3(C)CCC4c5ccc(O)cc5CCC4C23)s1` (stereo partly drawn) [Compound 80b, 3-[(13S,15R)-17-(3-Dimethylamino-propylamino)-3-hydroxy-13-methyl-7,8,9,11,12,13,14,15,16,17-decahydro-6H-cyclopenta[a]phenanthren-15-yl]-N-(5-methylthiazol-2-yl)propionamide dihydrochloride], the “17β-HDS1 Inhibition % at 1 μM” value in assay [1] (dihydrochloride) was determined as 61%. In assay [2] (dihydrochloride), the “17β-HSD2 Inhibition % at 1 μM” value amounted to 2%.

Turning to `COc1ccc2c(c1)CCC1C2CC[C@@]2(C)C1[C@H](CCC(=O)Nc1ncc(C)s1)C[C@@H]2O` (stereo partly drawn) [Compound 6, 3-((13S,15R,17S)-17-Hydroxy-3-methoxy-13-methyl-7,8,9,11,12,13,14,15,16,17-decahydro-6H-cyclopenta[a]phenanthren-15-yl)-N-(5-methylthiazol-2-yl)propanamide], the results for the inhibition at 1 µM in assay [1] and in assay [2] were 58% and 3%, respectively.

For the molecule `Cc1cnc(NC(=O)CC[C@@H]2CC(NC(C)C)[C@@]3(C)CCC4c5ccc(O)cc5CCC4C23)s1` (stereo partly drawn) [Compound 73, 3-[(13S,15R)-3-Hydroxy-17-isopropylamino-13-methyl-7,8,9,11,12,13,14,15,16,17-decahydro-6H-cyclopenta[a]phenanthren-15-yl]-N-(5-methylthiazol-2-yl)propionamide], the inhibition at 1 µM in assay [1] amounted to 86%; in assay [2] it was 11%.

As to `Cc1cnc(NC(=O)CC[C@@H]2C[C@H](O)[C@@]3(C)CCC4c5cc(Br)c(O)c(Br)c5CCC4C23)s1` (stereo partly drawn) [Compound 28, 3-((13S,15R,17S)-2,4-dibromo-3,17-dihydroxy-13-methyl-7,8,9,11,12,13,14,15,16,17-decahydro-6H-cyclopenta[a]phenanthren-15-yl)-N-(5-methylthiazol-2-yl)propanamide], the inhibition at 1 µM is 91% in assay [1] and 15% in assay [2].

For the molecule `Cc1cnc(NC(=O)CC[C@@H]2C[C@@](O)(CC#N)[C@@]3(C)CCC4c5cc(Br)c(O)c(Br)c5CCC4C23)s1` (stereo partly drawn) [Compound 30, 3-((13S,15R,17R)-2,4-dibromo-17-(cyanomethyl)-3,17-dihydroxy-13-methyl-7,8,9,11,12,13,14,15,16,17-decahydro-6H-cyclopenta[a]phenanthren-15-yl)-N-(5-methylthiazol-2-yl)propanamide], the inhibition at 1 µM in assay [1] is 52%; in assay [2], 7%.

Take `COCCNC1C[C@@H](CCC(=O)Nc2ncc(C)s2)C2C3CCc4cc(O)ccc4C3CC[C@]12C` (stereo partly drawn) [Compound 77, 3-((13S,15R)-3-Hydroxy-17-(2-methoxyethylamino)-13-methyl-7,8,9,11,12,13,14,15,16,17-decahydro-6H-cyclopenta[a]phenanthren-15-yl]-N-(5-methylthiazol-2-yl)propionamide]: the results for the inhibition at 1 µM in assay [1] and in assay [2] were 84% and 1%, respectively.

Consider `Cc1cnc(NC(=O)CC[C@@H]2C[C@H](OP(=O)(O)O)[C@@]3(C)CCC4c5ccc(O)cc5CCC4C23)s1` (some centres unmarked) [Compound 60], for which the inhibition at 1 µM in assay [1] is 74%; in assay [2] it was 0%.

For `Cc1cnc(NC(=O)CC[C@@H]2C[C@@](O)(CC#N)[C@@]3(C)CCC4c5ccc(O)cc5CCC4C23)s1` (stereo partly drawn) [Compound 24, 3-((13S,15R,17R)-17-(cyanomethyl)-3,17-dihydroxy-13-methyl-7,8,9,11,12,13,14,15,16,17-decahydro-6H-cyclopenta[a]phenanthren-15-yl)-N-(5-methylthiazol-2-yl)propanamide], the inhibition at 1 µM in assay [1] was found to be 51%; in assay [2], 4%.

On to `Cc1cnc(NC(=O)CC[C@@H]2C[C@H](O)[C@@]3(C)CCC4c5ccc(O)c(NC(C)CO)c5CCC4C23)s1` (stereo partly drawn) [Compound 72, 3-[(13S,15R,17S)-3,17-Dihydroxy-4-(2-hydroxy-1-methyl-ethylamino)-13-methyl-7,8,9,11,12,13,14,15,16,17-decahydro-6H-cyclopenta[a]phenanthren-15-yl]-N-(5-methylthiazol-2-yl)propionamide], for which the inhibition at 1 µM in assay [1] stood at 50%; in assay [2] it was 0%.

Turning to `COCCNC1C[C@@H](CCC(=O)Nc2ncc(C)s2)C2C3CCc4cc(O)c(C(C)(C)C)cc4C3CC[C@]12C` (stereo partly drawn) [Compound 79, 3-((13S,15R)-2-tert-Butyl-3-hydroxy-17-(2-methoxyethylamino)-13-methyl-7,8,9,11,12,13,14,15,16,17-decahydro-6H-cyclopenta[a]phenanthren-15-yl)-N-(5-methylthiazol-2-yl)propionamide], the inhibition at 1 µM in assay [1] stood at 75%; in assay [2], 17%.

The values above are taken from US9850272B2, “Therapeutically active estratrienthiazole derivatives as inhibitors of 17.beta-hydroxy-steroid dehydrogenase, type 1” (FORENDO PHARMA LTD, priority 2013, dated 2017).
